Measurements published in patent US11109593B2, “Isoxazolin-5-one derivative and herbicide containing same as active ingredient” (HOKKO CHEMICAL INDUSTRY CO., LTD., priority 2017, dated 2021).

What follows are compounds tested on Echinochloa crus-galli (assay: Test Example 1: herbicidal effect test by treatment of rice paddy soil (immediately after seeding)). Conditions: 120 g/10a active ingredient, dry weight vs untreated area, 14 days after treatment.
Type: in vivo
How it was run: (§1)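 Applied at 120 g a.i./10 ares as diluted emulsion dropped into flooded (~3 cm) paddy soil pots right after sowing seeds 0–1 cm deep; greenhouse, two replicates. At day 14, dry weight of treated versus untreated plants gives % herbicidal rate.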

SMILES	Herbicidal rate (%) Echinochloa crus-galli
C=CCOC(=O)N(c1ccccc1Cc1c(C)n(CCSC)oc1=O)S(=O)(=O)C(F)(F)F [Compound 1-709]	90%
Cc1c(Cc2ccccc2N(S(C)(=O)=O)S(=O)(=O)C(F)(F)F)c(=O)on1CC(C)C [Compound 1-892]	100%

These compounds were tested on Scirpus juncoides in the same assay as above. Conditions: 120 g/10a active ingredient, dry weight vs untreated area, 14 days after treatment.
Type: in vivo
How it was run: as §1

SMILES	Herbicidal rate (%) Scirpus juncoides
C=CCOC(=O)N(c1ccccc1Cc1c(C)n(CCSC)oc1=O)S(=O)(=O)C(F)(F)F [Compound 1-709]	90%
Cc1c(Cc2ccccc2N(S(C)(=O)=O)S(=O)(=O)C(F)(F)F)c(=O)on1CC(C)C [Compound 1-892]	90%

The compounds below were run on broad leaf weeds (Lindernia pyxidaria and Monochoria vaginalis) in the same assay as above. Conditions: Lindernia pyxidaria, 120 g/10a active ingredient, dry weight vs untreated area, 14 days after treatment.
Type: in vivo
How it was run: as §1

SMILES	Herbicidal rate (%) Lindernia pyxidaria
C=CCOC(=O)N(c1ccccc1Cc1c(C)n(CCSC)oc1=O)S(=O)(=O)C(F)(F)F [Compound 1-709]	90%
Cc1c(Cc2ccccc2N(S(C)(=O)=O)S(=O)(=O)C(F)(F)F)c(=O)on1CC(C)C [Compound 1-892]	90%

Same assay, conditions: Monochoria vaginalis, 120 g/10a active ingredient, dry weight vs untreated area, 14 days after treatment

SMILES	Herbicidal rate (%) Monochoria vaginalis
C=CCOC(=O)N(c1ccccc1Cc1c(C)n(CCSC)oc1=O)S(=O)(=O)C(F)(F)F [Compound 1-709]	90%
Cc1c(Cc2ccccc2N(S(C)(=O)=O)S(=O)(=O)C(F)(F)F)c(=O)on1CC(C)C [Compound 1-892]	90%

The compounds below were run on Echinochloa crus-galli (assay: Test Example 2: herbicidal effect test by treatment during growing period in paddy rice cultivation (seven days after seeding)). Conditions: 120 g/10a active ingredient, assessed 14 days after treatment, dry weight vs untreated area.
Type: in vivo
How it was run: (§2)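 Post-emergence paddy water application: compounds were formulated as emulsions, diluted and dropped into flooded pots seven days after sowing at a rate equivalent to 120 g per 10 ares. Efficacy was taken as dry-weight reduction relative to untreated controls after 14 days.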

SMILES	Herbicidal rate (%) Echinochloa crus-galli
C=CCOC(=O)N(c1ccccc1Cc1c(C)n(CCSC)oc1=O)S(=O)(=O)C(F)(F)F [Compound 1-709]	90%
Cc1c(Cc2ccccc2N(S(C)(=O)=O)S(=O)(=O)C(F)(F)F)c(=O)on1CC(C)C [Compound 1-892]	90%

These compounds were tested on Scirpus juncoides in the same assay as above. Conditions: 120 g/10a active ingredient, assessed 14 days after treatment, dry weight vs untreated area.
Type: in vivo
How it was run: as §2

SMILES	Herbicidal rate (%) Scirpus juncoides
C=CCOC(=O)N(c1ccccc1Cc1c(C)n(CCSC)oc1=O)S(=O)(=O)C(F)(F)F [Compound 1-709]	90%
Cc1c(Cc2ccccc2N(S(C)(=O)=O)S(=O)(=O)C(F)(F)F)c(=O)on1CC(C)C [Compound 1-892]	90%

These compounds were tested on broad leaf weeds (Lindernia pyxidaria and Monochoria vaginalis) in the same assay as above. Conditions: Lindernia pyxidaria, 120 g/10a active ingredient, assessed 14 days after treatment, dry weight vs untreated area.
Type: in vivo
How it was run: as §2

SMILES	Herbicidal rate (%) Lindernia pyxidaria
C=CCOC(=O)N(c1ccccc1Cc1c(C)n(CCSC)oc1=O)S(=O)(=O)C(F)(F)F [Compound 1-709]	90%
Cc1c(Cc2ccccc2N(S(C)(=O)=O)S(=O)(=O)C(F)(F)F)c(=O)on1CC(C)C [Compound 1-892]	80%

Same assay, conditions: Monochoria vaginalis, 120 g/10a active ingredient, assessed 14 days after treatment, dry weight vs untreated area

SMILES	Herbicidal rate (%) Monochoria vaginalis
C=CCOC(=O)N(c1ccccc1Cc1c(C)n(CCSC)oc1=O)S(=O)(=O)C(F)(F)F [Compound 1-709]	90%
Cc1c(Cc2ccccc2N(S(C)(=O)=O)S(=O)(=O)C(F)(F)F)c(=O)on1CC(C)C [Compound 1-892]	80%

Each compound was assayed on Amaranthus viridis (assay: Test Example 3: herbicidal effect test by treatment of dry field farming soil (one day after seeding)). Conditions: 120 g/10a active ingredient, evaluated 14 days after treatment.
Type: in vivo
How it was run: (§3)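 Dry-field alluvium pots; weed seeds incorporated in top 1 cm; soil spray of diluted emulsion 1 d after seeding, 120 g a.i./10 a in 100 L/10 a. Readout: % reduction of dry weight vs untreated, day 14, duplicates.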

SMILES	herbicidal rate, Amaranthus viridis
C=CCOC(=O)N(c1ccccc1Cc1c(C)n(CCSC)oc1=O)S(=O)(=O)C(F)(F)F [Compound 1-709]	90%
Cc1c(Cc2ccccc2N(S(C)(=O)=O)S(=O)(=O)C(F)(F)F)c(=O)on1CC(C)C [Compound 1-892]	90%

Each compound was assayed on Chenopodium album in the same assay as above. Conditions: 120 g/10a active ingredient, evaluated 14 days after treatment.
Type: in vivo
How it was run: as §3

SMILES	herbicidal rate, Chenopodium album
C=CCOC(=O)N(c1ccccc1Cc1c(C)n(CCSC)oc1=O)S(=O)(=O)C(F)(F)F [Compound 1-709]	90%
Cc1c(Cc2ccccc2N(S(C)(=O)=O)S(=O)(=O)C(F)(F)F)c(=O)on1CC(C)C [Compound 1-892]	80%

The compounds below were run on Echinochloa crus-galli in the same assay as above. Conditions: 120 g/10a active ingredient, evaluated 14 days after treatment.
Type: in vivo
How it was run: as §3

SMILES	herbicidal rate, Echinochloa crus-galli
C=CCOC(=O)N(c1ccccc1Cc1c(C)n(CCSC)oc1=O)S(=O)(=O)C(F)(F)F [Compound 1-709]	90%
Cc1c(Cc2ccccc2N(S(C)(=O)=O)S(=O)(=O)C(F)(F)F)c(=O)on1CC(C)C [Compound 1-892]	90%

The compounds below were run on southern crabgrass in the same assay as above. Conditions: 120 g/10a active ingredient, evaluated 14 days after treatment.
Type: in vivo
How it was run: as §3

SMILES	herbicidal rate, southern crabgrass
C=CCOC(=O)N(c1ccccc1Cc1c(C)n(CCSC)oc1=O)S(=O)(=O)C(F)(F)F [Compound 1-709]	90%
Cc1c(Cc2ccccc2N(S(C)(=O)=O)S(=O)(=O)C(F)(F)F)c(=O)on1CC(C)C [Compound 1-892]	90%

Each compound was assayed on Amaranthus viridis (assay: Test Example 4: herbicidal effect test by treatment of leave and stem in dry field farming (seven days after seeding)). Conditions: 120 g/10a active ingredient; emulsion sprayed seven days after seeding; evaluated 14 days after treatment.
Type: in vivo
How it was run: (§4)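 Duplicate pots were scored 14 days post-spray by dry weight, herbicidal rate = {1 − treated/untreated average dry weight} × 100. The water-diluted emulsion, equivalent to 120 g active ingredient per 10 ares in 100 L, was applied seven days after sowing 20 seeds each into the upper 1 cm of alluvial soil.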

SMILES	herbicidal effect (herbicidal rate), Amaranthus viridis
C=CCOC(=O)N(c1ccccc1Cc1c(C)n(CCSC)oc1=O)S(=O)(=O)C(F)(F)F [Compound 1-709]	40%
Cc1c(Cc2ccccc2N(S(C)(=O)=O)S(=O)(=O)C(F)(F)F)c(=O)on1CC(C)C [Compound 1-892]	40%

Each compound was assayed on Chenopodium album in the same assay as above. Conditions: 120 g/10a active ingredient; emulsion sprayed seven days after seeding; evaluated 14 days after treatment.
Type: in vivo
How it was run: as §4

SMILES	herbicidal effect (herbicidal rate), Chenopodium album
C=CCOC(=O)N(c1ccccc1Cc1c(C)n(CCSC)oc1=O)S(=O)(=O)C(F)(F)F [Compound 1-709]	40%
Cc1c(Cc2ccccc2N(S(C)(=O)=O)S(=O)(=O)C(F)(F)F)c(=O)on1CC(C)C [Compound 1-892]	40%

The compounds below were run on Echinochloa crus-galli in the same assay as above. Conditions: 120 g/10a active ingredient; emulsion sprayed seven days after seeding; evaluated 14 days after treatment.
Type: in vivo
How it was run: as §4

SMILES	herbicidal effect (herbicidal rate), Echinochloa crus-galli
C=CCOC(=O)N(c1ccccc1Cc1c(C)n(CCSC)oc1=O)S(=O)(=O)C(F)(F)F [Compound 1-709]	90%
Cc1c(Cc2ccccc2N(S(C)(=O)=O)S(=O)(=O)C(F)(F)F)c(=O)on1CC(C)C [Compound 1-892]	50%

Each compound was assayed on southern crabgrass in the same assay as above. Conditions: 120 g/10a active ingredient; emulsion sprayed seven days after seeding; evaluated 14 days after treatment.
Type: in vivo
How it was run: as §4

SMILES	herbicidal effect (herbicidal rate), southern crabgrass
C=CCOC(=O)N(c1ccccc1Cc1c(C)n(CCSC)oc1=O)S(=O)(=O)C(F)(F)F [Compound 1-709]	90%
Cc1c(Cc2ccccc2N(S(C)(=O)=O)S(=O)(=O)C(F)(F)F)c(=O)on1CC(C)C [Compound 1-892]	40%
